Measurements from ChEMBL document CHEMBL4414589, “Development of High-Throughput Fluorescent-Based Screens to Accelerate Discovery of P2X Inhibitors from Animal Venoms” (J Nat Prod, 2019).

Key:
Format in all cases: cell-based
[1] = molecular target: T1, P2X purinoceptor 4 (Homo sapiens, UniProt Q99571); assay: Antagonist activity at human P2X4R transfected in 1321N1 cells assessed as inhibition of ATP-mediated calcium influx measured after 10 mins by Fura-2AM assay
T1 sequence (Q99571 whole entry): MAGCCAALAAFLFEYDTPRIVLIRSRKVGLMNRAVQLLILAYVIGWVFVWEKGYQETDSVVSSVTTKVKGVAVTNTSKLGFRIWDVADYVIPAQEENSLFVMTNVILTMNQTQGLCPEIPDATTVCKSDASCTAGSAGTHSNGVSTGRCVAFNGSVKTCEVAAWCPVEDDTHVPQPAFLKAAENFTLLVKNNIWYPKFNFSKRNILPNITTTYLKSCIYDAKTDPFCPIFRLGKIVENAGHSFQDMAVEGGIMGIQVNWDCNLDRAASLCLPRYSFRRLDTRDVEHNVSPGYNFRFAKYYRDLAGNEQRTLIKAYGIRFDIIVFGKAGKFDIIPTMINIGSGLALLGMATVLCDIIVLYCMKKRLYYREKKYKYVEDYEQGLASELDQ

[2] = molecular target: T1, P2X purinoceptor 4; assay: Antagonist activity at human P2X4R transfected in HEK293 cells assessed as inhibition of ATP-mediated calcium influx measured after 10 mins by YOPRO-1 dye uptake assay
[3] = molecular target: T2, P2X purinoceptor 7 (Homo sapiens, UniProt Q99572); assay: Antagonist activity at human P2X7R transfected in HEK293 cells assessed as inhibition of ATP-mediated calcium influx measured after 10 mins by YOPRO-1 dye uptake assay
T2 sequence (Q99572 whole entry): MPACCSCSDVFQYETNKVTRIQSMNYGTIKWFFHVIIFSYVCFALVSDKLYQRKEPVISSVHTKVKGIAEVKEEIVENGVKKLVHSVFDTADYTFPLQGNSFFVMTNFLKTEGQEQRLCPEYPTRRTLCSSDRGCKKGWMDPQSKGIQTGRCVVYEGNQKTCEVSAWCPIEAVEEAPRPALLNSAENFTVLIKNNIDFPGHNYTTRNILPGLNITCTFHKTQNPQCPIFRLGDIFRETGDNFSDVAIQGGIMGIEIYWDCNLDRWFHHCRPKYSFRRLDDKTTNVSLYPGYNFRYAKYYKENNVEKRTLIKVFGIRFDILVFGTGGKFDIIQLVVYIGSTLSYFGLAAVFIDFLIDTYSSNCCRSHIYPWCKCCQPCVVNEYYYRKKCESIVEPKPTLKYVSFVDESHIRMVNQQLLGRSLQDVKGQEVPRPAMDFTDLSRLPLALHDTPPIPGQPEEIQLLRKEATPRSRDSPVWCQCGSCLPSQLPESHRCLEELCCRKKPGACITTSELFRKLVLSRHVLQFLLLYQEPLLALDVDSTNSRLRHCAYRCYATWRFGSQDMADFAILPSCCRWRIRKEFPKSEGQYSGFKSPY

Row | Compound | IC50 [1] | IC50 [2] | IC50 [3]
1 | O=C(CC12CC3CC(CC(C3)C1)C2)Nc1cccc2nc(NCCNCCO)ccc12 | Not Active | Not Active | –
2 | Cc1ccc(S(=O)(=O)N2c3ccccc3Oc3ccccc32)cc1 | – | – | Not Active
3 | O=C1CN=C(c2cccc(Br)c2)c2oc3ccccc3c2N1 | – | – | Not Active
4 | CC(C)c1cc(Br)c(NC(=O)Nc2cccnc2)c(Br)c1 | – | – | Not Active
